Earlier results, collected in patent publication US20110229902A1, “METHOD FOR DETERMINING THE […] OF FUNGI AND YEASTS, IN PARTICULAR OF A[…]” (STICHTING TER B[…] DE FARMACODYNAMIEK, priority 2008, published 2011).

Legend:
Parameters in all cases: key: R = resistant; S = sensitive
[1] = tested on: Aspergillus fumigatus cyp51A G54W; conditions: A. fumigatus isolate with cyp51A mutation G54W
[2] = tested on: Aspergillus fumigatus cyp51A M220X; conditions: A. fumigatus isolate with cyp51A mutation M220X
[3] = tested on: Aspergillus fumigatus cyp51A G54X; conditions: A. fumigatus isolate with cyp51A mutation G54X
[4] = tested on: Aspergillus fumigatus cyp51A L98H + TR; conditions: A. fumigatus isolate with cyp51A L98H + TR (tandem repeat in promoter)
[5] = tested on: Aspergillus fumigatus cyp51A G138C; conditions: A. fumigatus isolate with cyp51A mutation G138C

| SMILES | resistance status (resistant or sensitive) [1] | resistance status (resistant or sensitive) [2] | resistance status (resistant or sensitive) [3] | resistance status (resistant or sensitive) [4] | resistance status (resistant or sensitive) [5] |
| --- | --- | --- | --- | --- | --- |
| CC[C@@H]([C@H](C)O)n1ncn(-c2ccc(N3CCN(c4ccc(OC[C@@H]5CO[C@@](Cn6cncn6)(c6ccc(F)cc6F)C5)cc4)CC3)cc2)c1=O [Posaconazole] | R | S | S | S | S |
| C[C@@H](c1ncncc1F)[C@](O)(Cn1cncn1)c1ccc(F)cc1F [Voriconazole] | S | S | S | R | R |
| C[C@@H](c1nc(-c2ccc(C#N)cc2)cs1)[C@](O)(Cn1cncn1)c1ccc(F)cc1F [Ravuconazole] | S | S | S | R | R |
